Measured values from ChEMBL document CHEMBL5360537, “From lead to clinic: A review of the structural design of P2X7R antagonists” (Eur J Med Chem, 2023).
One block for each compound: values may come before it.

Experiments:
[1] = Half life in Han Wistar rat plasma at 1 mg/kg, iv measured upto 6 hrs by liquid chromatography tandem mass spectrometry; format: ADME, organism-based
[2] = Half life in Han Wistar rat Brain at 1 mg/kg, iv measured upto 6 hrs by liquid chromatography tandem mass spectrometry; format: ADME, organism-based
[3] = AUC(0 to 6 hrs) in Han Wistar rat Brain at 1 mg/kg, iv measured upto 6 hrs by liquid chromatography tandem mass spectrometry; format: ADME, organism-based; parameters: time < 6 hrs, dose 1 mg/kg, route iv
[4] = AUC(0 to 6 hrs) in Han Wistar rat plasma at 1 mg/kg, iv measured upto 6 hrs by liquid chromatography tandem mass spectrometry; format: ADME, organism-based; parameters: time < 6 hrs, dose 1 mg/kg, route iv
Mus musculus = assay: Antiinflammatory activity in ATP induced mouse paw edema model; format: functional; conditions: read-out: ID50 (the source's name)
[5] = molecular target: T1, P2X purinoceptor 7 (Mus musculus) (UniProt Q9Z1M0); assay: Antagonist activity at P2X7 receptor in mouse Peritoneal macrophage cells assessed as ATP induced dye uptake at 10 uM relative to control; format: cell-based; conditions: filed as antagonist
T1 sequence (whole entry): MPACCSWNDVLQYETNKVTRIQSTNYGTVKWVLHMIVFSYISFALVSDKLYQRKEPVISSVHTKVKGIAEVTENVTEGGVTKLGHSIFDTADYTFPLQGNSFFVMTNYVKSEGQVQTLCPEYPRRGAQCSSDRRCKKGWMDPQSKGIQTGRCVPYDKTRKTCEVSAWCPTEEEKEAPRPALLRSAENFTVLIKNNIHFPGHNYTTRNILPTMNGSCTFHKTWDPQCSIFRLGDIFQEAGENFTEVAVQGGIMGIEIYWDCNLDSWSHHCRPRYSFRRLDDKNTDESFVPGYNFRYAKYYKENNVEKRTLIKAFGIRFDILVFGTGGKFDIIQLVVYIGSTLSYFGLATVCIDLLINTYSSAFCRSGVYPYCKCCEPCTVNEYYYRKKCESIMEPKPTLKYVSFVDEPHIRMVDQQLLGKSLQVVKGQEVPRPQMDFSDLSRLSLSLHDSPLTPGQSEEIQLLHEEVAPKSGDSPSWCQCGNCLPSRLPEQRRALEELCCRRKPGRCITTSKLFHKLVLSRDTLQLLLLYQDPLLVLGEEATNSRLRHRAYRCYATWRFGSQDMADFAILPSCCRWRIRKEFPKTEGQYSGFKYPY

P2X purinoceptor 7 [6] = molecular target: T2, P2X purinoceptor 7 (Mus musculus, UniProt Q9Z1M0); assay: Antagonist activity at P2X7 receptor in mouse Peritoneal macrophage cells assessed as reduction in ATP induced IL-1 beta release; format: cell-based
T2 sequence (Q9Z1M0 whole entry): T1 sequence (whole entry)

P2X purinoceptor 7 [7] = molecular target: T3, P2X purinoceptor 7 (Homo sapiens, UniProt Q99572); assay: Antagonist activity at P2X7 receptor in human THP-1 cells assessed as reduction in ATP induced IL-1 beta release; format: cell-based
T3 sequence (Q99572 whole entry): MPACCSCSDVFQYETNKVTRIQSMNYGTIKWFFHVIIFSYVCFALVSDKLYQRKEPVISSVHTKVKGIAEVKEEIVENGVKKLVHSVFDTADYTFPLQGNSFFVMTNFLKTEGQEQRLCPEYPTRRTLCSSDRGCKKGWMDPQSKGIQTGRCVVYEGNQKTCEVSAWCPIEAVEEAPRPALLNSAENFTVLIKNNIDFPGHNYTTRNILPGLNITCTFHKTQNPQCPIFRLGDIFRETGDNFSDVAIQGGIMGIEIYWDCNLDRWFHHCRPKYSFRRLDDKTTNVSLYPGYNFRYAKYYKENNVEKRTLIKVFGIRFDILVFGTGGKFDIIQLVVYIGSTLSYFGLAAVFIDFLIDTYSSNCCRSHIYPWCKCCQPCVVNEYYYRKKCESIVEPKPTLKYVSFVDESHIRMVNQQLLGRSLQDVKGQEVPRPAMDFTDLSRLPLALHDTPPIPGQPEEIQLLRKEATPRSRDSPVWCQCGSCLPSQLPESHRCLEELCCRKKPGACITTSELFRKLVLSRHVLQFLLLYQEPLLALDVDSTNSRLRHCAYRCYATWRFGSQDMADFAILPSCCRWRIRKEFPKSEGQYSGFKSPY

P2X purinoceptor 7 [8] = molecular target: T2, P2X purinoceptor 7; assay: Inhibition of mouse P2X7 receptor expressed in xenopus laevis Oocyte cells by TEVC analysis; format: cell-based
P2X purinoceptor 7 [9] = molecular target: T3, P2X purinoceptor 7; assay: Antagonist activity at recombinant human P2X7 receptor expressed in 1321N1 cells measured after 30 mins by fluorescence based calcium flux assay; format: cell-based
P2X purinoceptor 7 [10] = molecular target: T3, P2X purinoceptor 7; assay: Inhibition of human P2X7 receptor in HEK cells by fluorescence based calcium influx assay; format: cell-based
P2X purinoceptor 7 [11] = molecular target: T3, P2X purinoceptor 7; assay: Inhibition of human P2X7 receptor transfected in HEK293 cells by calcium influx assay; format: cell-based
P2X purinoceptor 7 [12] = molecular target: T4, P2X purinoceptor 7 (Rattus norvegicus, UniProt Q64663); assay: Inhibition of rat P2X7 receptor transfected in HEK293 cells by calcium influx assay; format: cell-based
T4 sequence (Q64663 whole entry): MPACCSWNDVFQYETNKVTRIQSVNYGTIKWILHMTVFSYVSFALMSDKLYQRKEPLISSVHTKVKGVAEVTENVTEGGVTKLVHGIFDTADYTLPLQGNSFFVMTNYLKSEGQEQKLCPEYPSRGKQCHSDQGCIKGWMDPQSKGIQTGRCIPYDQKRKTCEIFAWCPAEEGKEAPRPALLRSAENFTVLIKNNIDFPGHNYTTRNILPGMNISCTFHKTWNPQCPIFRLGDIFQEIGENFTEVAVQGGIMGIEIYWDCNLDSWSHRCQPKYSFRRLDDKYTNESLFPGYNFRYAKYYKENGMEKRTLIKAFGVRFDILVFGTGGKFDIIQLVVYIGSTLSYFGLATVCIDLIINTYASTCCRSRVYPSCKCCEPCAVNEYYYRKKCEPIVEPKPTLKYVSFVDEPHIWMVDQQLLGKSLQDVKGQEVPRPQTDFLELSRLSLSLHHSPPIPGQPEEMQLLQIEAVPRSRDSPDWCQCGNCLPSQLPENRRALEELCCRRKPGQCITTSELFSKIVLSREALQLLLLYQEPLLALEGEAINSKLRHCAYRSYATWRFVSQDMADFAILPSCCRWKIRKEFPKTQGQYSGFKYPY

[13] = Half life in human liver microsomes; format: ADME, Microsome
P2X purinoceptor 7 [14] = molecular target: T3, P2X purinoceptor 7; assay: Antagonist activity at P2X7 in human THP-1 cells; format: cell-based
P2X purinoceptor 7 [15] = molecular target: T3, P2X purinoceptor 7; assay: Inhibition of human P2X7 receptor expressed in HEK293 cells incubated for 5 mins followed by Bz-ATP addition measured after 3 mins by fluorescence based assay; format: cell-based
P2X purinoceptor 7 [16] = molecular target: T2, P2X purinoceptor 7; assay: Inhibition of mouse P2X7 receptor expressed in HEK293 cells incubated for 5 mins followed by Bz-ATP addition measured after 3 mins by fluorescence based assay; format: cell-based

half-life [1]: 103 min
half-life [2]: 75.6 min
AUC(0-t) at 6 h [3]: 380 ng·h/mL
AUC(0-t) at 6 h [4]: 385 ng·h/mL
Compound: COc1ccc(Cl)c(C(=O)NCC23CC4(F)CC(F)(CC(F)(C4)C2)C3)c1

inhibition [5]: 60%
IC50 (P2X purinoceptor 7 [6]): 1.5 µM
IC50 (P2X purinoceptor 7 [7]): 1.1 µM
Compound: CC1=C(C(c2ccc(Cl)cc2)n2cc(COCc3ccco3)nn2)C(=O)c2ccccc2C1=O (centres undefined)
ED50 (Mus musculus): 16 mg/kg

IC50 (P2X purinoceptor 7 [8]): 0.39 µM
Compound: O=C(NCC1(c2ccc(CO[N+](=O)[O-])cc2)CCCCC1)c1ccccc1Cl

IC50 (P2X purinoceptor 7 [9]): 0.0031 µM
Compound: O=C(OCC1c2ncn(-c3ccccc3)c2CCN1C(=O)c1cccc(C(F)(F)F)c1Cl)c1cccc(C(F)(F)F)c1Cl (centres undefined)

IC50 (P2X purinoceptor 7 [8]): 1.43 µM
Compound: Cc1ccc(C2(CNC(=O)c3cc(CO[N+](=O)[O-])ccc3Cl)CCCCC2)cc1

IC50 (P2X purinoceptor 7 [10]): 0.017 µM
Compound: COc1ccc(Cl)c(C(=O)NCC23CC4CC(CC(F)(C4)C2)C3)c1

half-life [1]: 28.2 min
half-life [2]: 9.6 min
AUC(0-t) at 6 h [3]: 221 ng·h/mL
AUC(0-t) at 6 h [4]: 186 ng·h/mL
Compound: COc1ccc(Cl)c(C(=O)NCC23CC4CC(CC(C4)C2)C3)c1

IC50 (P2X purinoceptor 7 [11]): > 1 µM
IC50 (P2X purinoceptor 7 [12]): > 1 µM
Compound: O=C1CCC(C(=O)NCC2CCCCCCC2)c2cccnc21 (centres undefined)

half-life [13]: 55.8 min
IC50 (P2X purinoceptor 7 [14]): 0.0093 µM
Compound: Cc1ccc2c(=O)n(C(C)CO)ccc2c1NC(=O)Cc1ccc(C(F)(F)F)c(F)c1 (centres undefined)

Compound: O=C(NCc1cccc(C(F)(F)F)c1Cl)[C@@]1(O)CCC(O)c2ncccc21 (some centres undefined)
IC50 (P2X purinoceptor 7 [11]): 0.101 µM
IC50 (P2X purinoceptor 7 [12]): < 1 µM

IC50 (P2X purinoceptor 7 [15]): 0.0111 µM
IC50 (P2X purinoceptor 7 [16]): 0.0134 µM
Compound: O=C(NCC(c1scnc1C(F)F)N1CCC(Oc2cccc(Cl)n2)CC1)c1c(F)cccc1Cl (centres undefined)
